Experimental data: patent US20060240098A1, “Formulations for hyperforin-enriched hypericum fractions” (Aphios Corporation, priority 2004, published 2006)
Structures can show the parent of a compound that is named as a salt.

Biological target: serotonin reuptake (Rattus norvegicus, UniProt P31652)
Assay: in vitro serotonin reuptake inhibition assay (Paracelsian)
Type: biochemical
Method: The bioassay was performed in quadruplicate by Paracelsian, Inc., Ithaca, N.Y. and were all in compliance with our standard operating protocols, having a standard deviation less than ±5%.

Chain of serotonin reuptake (P31652 whole entry): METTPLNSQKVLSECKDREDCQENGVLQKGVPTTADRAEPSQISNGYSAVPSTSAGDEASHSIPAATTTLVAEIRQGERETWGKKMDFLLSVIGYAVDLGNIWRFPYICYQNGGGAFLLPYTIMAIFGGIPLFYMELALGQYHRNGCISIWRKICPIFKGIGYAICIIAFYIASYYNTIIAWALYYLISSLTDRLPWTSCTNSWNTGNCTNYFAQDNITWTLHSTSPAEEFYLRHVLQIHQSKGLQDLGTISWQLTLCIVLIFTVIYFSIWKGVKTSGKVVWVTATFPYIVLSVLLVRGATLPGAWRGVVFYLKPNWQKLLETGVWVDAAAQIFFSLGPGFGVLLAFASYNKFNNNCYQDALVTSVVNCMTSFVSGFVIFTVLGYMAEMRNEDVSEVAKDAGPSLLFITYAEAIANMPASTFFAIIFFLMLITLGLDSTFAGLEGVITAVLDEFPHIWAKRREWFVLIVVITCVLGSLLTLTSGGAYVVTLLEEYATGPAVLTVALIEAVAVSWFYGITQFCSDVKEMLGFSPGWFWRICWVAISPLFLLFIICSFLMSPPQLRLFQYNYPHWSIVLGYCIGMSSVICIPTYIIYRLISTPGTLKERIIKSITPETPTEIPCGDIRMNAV

Cc1cc(O)c2c(=O)c3c(O)cc(O)c4c5c(O)cc(O)c6c(=O)c7c(O)cc(C)c8c1c2c(c34)c(c78)c65 [Hypericin (Sigma), hypericin]
Serotonin Reuptake Inhibition (%) (sample weight 2 μg): 0.0%

CN(C)CCCN1c2ccccc2CCc2ccccc21 [Imipramine (Sigma), imipramine hydrochloride]
Serotonin Reuptake Inhibition (%) (sample weight 65 ng): 38.3%

hyperforin [Hyperforin (Aphios)]
Serotonin Reuptake Inhibition (%) (sample weight 2 μg): 80.3%
